Drawing on US20220144823A1, “PYRAZOLOPYRIDINE DERIVATIVES AS INHIBITORS OF PASK” (Galapagos NV, priority 2019, published 2022), this text covers IC50 for one compound.

The target in assay [1] is T1, human PASK (Homo sapiens, UniProt Q96RG2).
T1 construct: purchased ThermoFisher Scientific PR7013A
The experiment in a line: 33P radioactive kinase assay. It is filed as biochemical. The note with it: 33P radioactive PASK kinase assay, 10 μM ATP, ZIPtide 1 μM. The gist of the method:
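Human PASK phosphorylation of ZIPtide peptide was measured by incorporation from [^33P]-ATP plus unlabelled ATP, with a 10-point, 1/5 dilution series from 0.2 or 2 mM DMSO stocks and 1% DMSO final. Reactions were stopped with phosphoric acid, filter-harvested, washed and scintillation-counted. Percentage inhibition gave dose–response curves and averaged IC50s.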

Assay [2] has as its target T1, human PASK. The experiment in a line: ADP-Glo kinase assay. The format is biochemical. The note with it: ADPGlo PASK kinase assay, 25 μM ATP, ZIPtide 25 μM. The gist of the method:
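Human recombinant PASK phosphorylating ZIPtide peptide with ATP, 120 min at RT; compounds in 10-point 1/5 dilution series, 1% DMSO final. ADP formed measured by ADP-Glo luminescence after ATP depletion; percent inhibition fitted to dose-response curves for averaged IC50.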
On the technique in general: ADP-Glo first removes unused ATP, then detects ADP through luciferase.

T1 sequence (Q96RG2 whole entry): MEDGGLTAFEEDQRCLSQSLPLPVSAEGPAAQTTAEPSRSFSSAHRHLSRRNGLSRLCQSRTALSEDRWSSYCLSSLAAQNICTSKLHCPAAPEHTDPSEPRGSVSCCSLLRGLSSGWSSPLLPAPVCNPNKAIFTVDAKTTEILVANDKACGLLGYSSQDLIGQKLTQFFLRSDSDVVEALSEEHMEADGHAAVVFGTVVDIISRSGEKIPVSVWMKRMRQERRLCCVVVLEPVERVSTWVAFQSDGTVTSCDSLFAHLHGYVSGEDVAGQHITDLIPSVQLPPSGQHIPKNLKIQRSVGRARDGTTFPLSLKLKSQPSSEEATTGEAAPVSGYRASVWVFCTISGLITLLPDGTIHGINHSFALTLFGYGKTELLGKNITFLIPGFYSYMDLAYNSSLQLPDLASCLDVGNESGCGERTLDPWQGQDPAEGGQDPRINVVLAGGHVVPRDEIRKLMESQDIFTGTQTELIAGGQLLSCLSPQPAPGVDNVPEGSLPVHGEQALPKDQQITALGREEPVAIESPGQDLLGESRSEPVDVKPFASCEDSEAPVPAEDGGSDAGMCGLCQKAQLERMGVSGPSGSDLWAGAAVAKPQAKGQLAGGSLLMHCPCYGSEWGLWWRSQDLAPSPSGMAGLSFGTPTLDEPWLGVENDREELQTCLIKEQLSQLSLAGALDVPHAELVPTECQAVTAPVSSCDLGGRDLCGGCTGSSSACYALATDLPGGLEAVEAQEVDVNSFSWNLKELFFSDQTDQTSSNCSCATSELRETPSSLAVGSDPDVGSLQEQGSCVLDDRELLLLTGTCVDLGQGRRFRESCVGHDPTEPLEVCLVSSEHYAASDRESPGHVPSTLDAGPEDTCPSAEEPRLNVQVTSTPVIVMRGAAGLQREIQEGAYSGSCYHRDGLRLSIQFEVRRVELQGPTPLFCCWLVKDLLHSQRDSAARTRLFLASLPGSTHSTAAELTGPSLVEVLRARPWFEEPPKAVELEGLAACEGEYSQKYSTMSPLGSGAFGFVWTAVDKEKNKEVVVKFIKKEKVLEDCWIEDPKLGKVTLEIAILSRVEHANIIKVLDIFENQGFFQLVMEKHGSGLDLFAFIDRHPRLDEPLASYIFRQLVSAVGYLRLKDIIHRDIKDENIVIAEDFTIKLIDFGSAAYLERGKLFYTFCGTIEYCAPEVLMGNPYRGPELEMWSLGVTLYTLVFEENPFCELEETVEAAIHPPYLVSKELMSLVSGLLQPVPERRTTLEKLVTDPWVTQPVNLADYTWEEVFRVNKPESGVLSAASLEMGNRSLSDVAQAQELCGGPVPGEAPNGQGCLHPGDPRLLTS

In general, IC50 refers to the concentration at which inhibition is half-maximal. With `Cc1nn(C(C)C)c(C)c1-c1cnn2ccc(-c3cc(C(=O)O)co3)cc12` [Cpd 18, 5-[3-(1-isopropyl-3,5-dimethyl-pyrazol-4-yl)pyrazolo[1,5-a]pyridin-5-yl]furan-3-carboxylic acid], the IC50 in assay [1] and in assay [2] was 0.01 to 10 nM throughout.
